Where two headings read alike, the source gives them in different places.
Columns and labels:
[1] = cited from earlier work
[2] = biological target: DP-IV (Homo sapiens, UniProt P27487); experiment: DP-IV inhibition / affinity
Experimental: As an illustrative embodiment, the ability of a test agent to inhibit DPIV can be assessed using a colorimetric or fluorometric substrate, such as Ala-Pro-paranitroanilide.
An illustrative reaction mixture includes 50 μM sodium Hepes (pH7.8), 10 μM Ala-Pro-paranitroanilide, 6 milliunits of DPIV, and 2% (v/v) dimethylformamide in a total volume of 1.0 mL. The reaction is initiated by addition of enzyme, and formation of reaction product (paranitroanilide) in the presence and absence of a test compound can be detected photometrically, e.g., at 410 nm.

[3] = tested on: mice; experiment: Oral glucose tolerance test in mice; type: in vivo; settings: for glucose levels in blood / glucose control: single injection alone, one hour prior to oral glucose challenge, FIG. 3; for response to a sub-therapeutic dose of GLP-1: single injection, with 8 μg GLP-1
Experimental: The first two experiments are “acute” experiments wherein the mice were injected with a single dose of Pro-boro-pro. In the first set of experiments mice were injected with 150 μg of Pro-boro-pro (PBP-1) and then subjected to an oral glucose tolerance test within an hour. […] In a second set of experiments mice were injected with Pro-boro-pro (PBP-2) one hour prior to an oral glucose challenge test. FIG. 3 presents the results of these experiments. Each set of experiments was also performed using saline as a control.
The third set of experiments were “chronic” experiments, wherein the mice were injected twice daily with Pro-boro-pro for four days, followed by an oral glucose challenge.

[4] = chronic (>5 days) treatment alone

Chain of DP-IV (P27487 whole entry): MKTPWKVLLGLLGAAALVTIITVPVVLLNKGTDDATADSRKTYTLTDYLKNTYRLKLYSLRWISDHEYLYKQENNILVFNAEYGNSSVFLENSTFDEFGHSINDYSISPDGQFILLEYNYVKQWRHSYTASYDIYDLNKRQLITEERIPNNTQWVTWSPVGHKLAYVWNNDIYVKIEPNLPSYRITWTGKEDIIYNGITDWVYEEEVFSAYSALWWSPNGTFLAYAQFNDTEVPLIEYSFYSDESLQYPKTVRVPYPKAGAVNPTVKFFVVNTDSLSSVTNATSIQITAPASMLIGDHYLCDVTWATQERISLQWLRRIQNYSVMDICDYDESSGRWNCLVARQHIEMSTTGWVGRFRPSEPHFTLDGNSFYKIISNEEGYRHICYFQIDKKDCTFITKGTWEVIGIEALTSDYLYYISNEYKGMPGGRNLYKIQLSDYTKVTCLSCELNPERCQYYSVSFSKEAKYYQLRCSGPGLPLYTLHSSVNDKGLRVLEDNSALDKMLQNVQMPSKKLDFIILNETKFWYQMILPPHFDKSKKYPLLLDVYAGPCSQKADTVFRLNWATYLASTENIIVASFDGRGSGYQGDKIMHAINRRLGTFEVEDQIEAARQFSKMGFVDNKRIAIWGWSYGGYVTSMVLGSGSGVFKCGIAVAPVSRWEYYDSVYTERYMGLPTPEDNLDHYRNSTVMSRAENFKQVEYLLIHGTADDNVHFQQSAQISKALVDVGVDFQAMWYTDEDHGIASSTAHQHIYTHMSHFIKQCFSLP

Molecule: glucagon-like peptide-1 [GLP-1]
- metabolite share of the increase in plasma immunoreactivity (COOH-terminal RIA) ([1]; thirty minutes after subcutaneous GLP-1, diabetic patients (n=8)): 88.5+1.9%
- metabolite share of the increase in plasma immunoreactivity (COOH-terminal RIA) ([1]; thirty minutes after subcutaneous GLP-1, healthy subjects (n=8)): 78.4+3.2%

Molecule: L-Ala-L-boroPro-pinacol
- extent of DP-IV inhibition ([2]; silica gel fractions compared at equal concentrations): inhibits DP-IV to a greater extent than later fractions

Molecule: O=C(C1CCCN1)N1CCCC1B(O)O (stereo not shown) [Pro-boro-pro]
- fasting blood sugars [3, 4]: lowers
- glycemic excursion to oral glucose challenge [3, 4]: lowers
- blood sugar levels ([3]; chronic: injected twice daily for four days, then oral glucose challenge, FIG. 4): lowering of the blood sugar levels
- blood sugar ([3]; oral glucose challenge in mice, overall statement): clearly lowers blood sugar
- glucose levels in blood (glucose tolerance curve) ([3]; single injection 150 μg, oral glucose tolerance test within an hour, 8 μg GLP-1 five minutes prior to glucose, FIG. 2): improves glucose levels in blood
- glucose levels in blood / glucose control [3]: alone sufficient to improve glucose control
- glucose levels in blood / glucose control ([3]; listed as PBP-2): improves glucose levels in blood
- response to a sub-therapeutic dose of GLP-1 ([3]; FIG. 2): potentiate the response to a subtherapeutic dose of GLP-1
- response to a sub-therapeutic dose of GLP-1 ([3]; FIG. 2, listed as PBP-1): potentiates the response to a sub-therapeutic dose of GLP-1

Molecule: CC(NC(=O)OC(C)(C)C)C(=O)N1CCCC1B(O)O (stereo not drawn) [Boc-blocked Ala-boroPro, Boc-Ala-boroPro]
- affinity for DP-IV [2]: no affinity
